According to paper PMC9545004, “Transglutaminase 2 affinity and enzyme‐substrate intermediate stability as determining factors for T‐cell responses to gluten peptides in celiac disease” (European Journal of Immunology, 2022):
No end group written: not given here. *: point of attachment. FITC = O=C1OC2(c3ccc(O)cc3Oc3cc(O)ccc32)c2ccc(NC(=S)*)cc21; Ahx = NCCCCCC(=O)O

T1: Recombinant human TG2 (Homo sapiens, UniProt P21980)
T1 construct: His-tag (C); made in house; host or cells: Sf+ express insect cells (pACAB3 vector)
T1 sequence (P21980 1-687): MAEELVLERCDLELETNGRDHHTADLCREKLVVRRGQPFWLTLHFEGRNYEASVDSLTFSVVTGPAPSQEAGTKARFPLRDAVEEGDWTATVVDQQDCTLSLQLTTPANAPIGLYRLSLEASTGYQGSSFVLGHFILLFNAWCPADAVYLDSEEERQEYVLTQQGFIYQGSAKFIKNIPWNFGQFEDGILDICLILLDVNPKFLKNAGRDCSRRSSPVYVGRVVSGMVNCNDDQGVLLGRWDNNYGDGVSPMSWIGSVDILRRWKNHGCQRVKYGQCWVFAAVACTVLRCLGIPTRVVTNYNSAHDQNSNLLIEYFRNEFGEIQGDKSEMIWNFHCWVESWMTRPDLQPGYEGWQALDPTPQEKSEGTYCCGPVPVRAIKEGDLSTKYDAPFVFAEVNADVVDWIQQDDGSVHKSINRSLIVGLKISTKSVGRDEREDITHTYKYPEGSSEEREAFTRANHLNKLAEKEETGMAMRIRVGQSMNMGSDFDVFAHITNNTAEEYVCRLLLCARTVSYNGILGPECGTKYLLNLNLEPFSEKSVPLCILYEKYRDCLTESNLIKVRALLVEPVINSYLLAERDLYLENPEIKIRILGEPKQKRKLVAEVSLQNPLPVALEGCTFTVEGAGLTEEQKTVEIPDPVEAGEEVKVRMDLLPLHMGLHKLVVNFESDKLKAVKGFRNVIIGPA

T2: Recombinant human transglutaminase 2 (human, UniProt P21980 1-687)
T2 construct: human transglutaminase 2 (TGM2), cloned into the pACAB3 vector; Used enzymatically active with CaCl2; also called TG2; recombinant TG2
T2 sequence (looked up): T1 sequence (P21980 1-687)

B1: FITC-labeled γ1 9-mer gliadin peptide (native) (peptide)
peptide: {FITC-Ahx}-QQSFPQQQR
notes: native 9-mer from γ-gliadin; The unlabelled peptide is N-terminally acetylated; also called FITC-γ1; source: synthetic peptide
B2: FITC-labeled ω2 9-mer gliadin peptide (native) (peptide)
peptide: {FITC-Ahx}-PQPQQPFPW
notes: also called FITC-ω2; source: synthetic peptide
B3: FITC-labeled α2 9-mer gliadin peptide (native) (peptide)
peptide: {FITC-Ahx}-PQPQLPYPQ
notes: also called FITC-α2; source: synthetic peptide
B4: FITC-labeled γ3 9-mer gliadin peptide (native) (peptide)
peptide: {FITC-Ahx}-QPQQPYPQQ
notes: native 9-mer from γ-gliadin; The unlabelled peptide is N-terminally acetylated; also called FITC-γ3; source: synthetic peptide

What was measured:
[1] = target: T1, Recombinant human TG2; test: TG2 enzyme kinetic assay, GDH-coupled ammonia release; assay type: biochemical; details: for kcat/Km / Km / kcat: GDH-coupled, MOPS pH 7.2, TG2 50 µg/mL, 37°C, A340; for Km / kcat: mean and SD from three independent experiments
Description: To test the influence of substrate affinity for TG2 on B‐cell uptake, we determined kinetic parameters for gluten peptides harboring the essential TG2 targeted glutamine residue within the DQ2.5‐glia‐α2, DQ2.5‐glia‐ω2, DQ2.5‐glia‐γ1, or DQ2.5‐glia‐γ3 T‐cell epitopes. To directly compare differences in TG2 affinity between the glutamines from the different peptides, we tested 9‐mer peptides harboring only one TG2 targeted glutamine residue.
Recombinant human TG2 with a C‐terminal His‐tag was expressed in Sf+ express insect cells. Briefly, human TGM2 was cloned into the pACAB3 vector, and protein was expressed for 3 days followed by lysis and purification by nickel‐nitrilotriacetic acid affinity chromatography as previously described.
Kinetic parameters for the 9‐mer peptides α2, ω2, γ1, and γ3 were measured using a coupled GDH catalyzed reaction assay performed in microtiter plates as previously described. Here, the following components were used: (1) a 5× stock MOPS buffer consisting of 1 M 3‐(N‐morpholino)propanesulfonic acid pH 7.2, 25 mM CaCl2, 5 mM ETDA, and 50 mM α‐ketoglutarate (Sigma Aldrich) in distilled water; (2) nicotinamide adenine dinucleotide hydrogen (NADH, Sigma–Aldrich); (3) GDH from beef liver (Roche); (4) gluten peptides; (5) recombinant TG2 solved in 1mM EDTA/Tris‐buffered saline. Components 1–4 were mixed in PCR‐strips (Axygen) to give final concentrations of 1x stock buffer, 1 mM NADH, 0.125 U/µL GDH, and various peptide concentrations. The mixture was preincubated in the dark for 15 min, and the reaction was started by the addition of recombinant TG2 (final concentration of 50 µg/mL) followed by transfer to a microtiter plate (Thermo Scientific). Absorbance (340 nm) was measured continuously for 50 min at 37°C using a Victor 3V Multi‐Label Microplate Reader (Perkin Elmer‐Wallac). Initial reaction velocities were calculated from the linear area of the absorbance curves by determining the change in absorbance over time compared to the change from an NADH standard curve. The Michaelis constants (K M) and turnover rates (k cat) were calculated using the k cat equation analysis tool in GraphPad Prism 8.3.0 (GraphPad Software).

[2] = target: T2, Recombinant human transglutaminase 2; test: flow cytometry on cells; recombinant TG2 (3 µg/mL), 5 µM FITC peptide and 2 mM CaCl2 in RPMI with A20 cells expressing the TG2-specific BCR 679-14-E06, 37°C; stopped with EDTA, cells washed and fixed; cell-bound FITC peptide read as delta MFI against A20 cells with the non-TG2-specific BCR 693-2-F02; details: both partners purified
[3] = target: T2, Recombinant human transglutaminase 2

Molecule | Km [1] [µM] | kcat [1] [min^–1] | binding result [2] | Km of TG2 turnover, GDH-coupled ammonia release assay (formation of the thioester intermediate complex), 37°C, pH 7.2 [3] [mM] | other results
PQP Q LPYPQ [α2] | 130 ± 20 | 25.7±0.8 |  |  | kcat/Km [1]: 197 min^–1/mM
Ac‐QQSFP Q QQR [γ1] | 240 ± 20 | 24.0±0.7 |  |  | kcat/Km [1]: 100 min^–1/mM; affinity to TG2 (Km), in words ([1]; native 9-mer peptides, compared with the other 9-mers): twofold lower affinity to TG2
Ac‐QP Q QPYPQQ [γ3] | 130 ± 30 | 23.2±1.0 |  |  | 
PQP Q QPFPW [ω2] | 100 ± 20 | 27.6±1.0 |  |  | kcat/Km [1]: 276 min^–1/mM
B1 |  |  | binds |  | 
PQPQLPYPQ [α2 9-mer gliadin peptide (native, harbouring the DQ2.5-glia-α2 epitope)] |  |  |  | 0.13 | 
PQPQQPFPW [ω2 9-mer gliadin peptide (native, harbouring the DQ2.5-glia-ω2 epitope)] |  |  |  | 0.1 | 
B2 |  |  | binds |  | 
B3 |  |  | binds |  | 
B4 |  |  | binds |  | 
Ac-QQSFPQQQR |  |  |  | 0.24 | 
Ac-QPQQPYPQQ |  |  |  | 0.13 | 
